Where a name gives a salt, the structure may show the parent alone.
How the values were obtained:
[1] = system: P. falciparum ATCC 50005 (chloroquine resistant); assay: Growth inhibition of chloroquine-resistant P. falciparum in culture (96-well plates, microscopy and flow cytometry); format: cell-based; settings: chloroquine-resistant strain
Experimental: Numerous experiments were conducted regarding dequalinium compounds and their ability to control the growth of chloroquine-resistant and sensitive strains of P. falciparum malaria parasites. Specifically, two commonly-known strains of P. falciparum were obtained from the American Type Culture Collection (ATCC), namely, ATCC 50005 (chloroquine resistant) and ATCC 50028 (chloroquine sensitive). The methods of culture and culture materials used in the experiments described herein are known in the art and discussed in Trager W. and Jensen, J., "Human Malaria Parasites in Continuous Culture" Science, […] (1976).
Assays for growth inhibition of P. falciparium were performed using the above parasites in standard 96-well test plates. All assays were performed in duplicate. The tests involved the use of a dequalinium chloride salt solution (from the Sigma Company of St. Louis, Mo.--product no. D3768) at concentration levels of 32, 16, 8, 4, 2, 1, and 0 nanograms/ml.
The parasites were permitted to incubate in the test media for 72 hours. At 24 hour intervals, new media and test substances were added, and an aliquot of the incubation mixture was removed for microscopic examination,In addition, the parasites were examined by flow cytometry using the techniques discussed in Makler, M. T., et al., "Thiazone Orange: A New Dye for Plasmodium Species Analysis" Cytometry, 8:568-570 (1987).
The entire experiment was terminated after three days. The data in FIG. 1 clearly illustrates the effectiveness of dequalinium salts against chloroquine-resistant parasites. The "Y" axis in FIG. 1 involves the percentage of erythrocytes in the test media which were infected with viable parasites. The "X" axis involves the concentration of dequalinium chloride used (in nanograms/ml.) At 0 nanograms/ml, parasite growth was extensive, with a % parasite infection of about 17 % after 72 hours.

Rat Colon Tumor = settings: rats, subcutaneous, intraperitoneal, or implant-osmotic pump, cited from earlier work
[2] = s.c., mice; cited from earlier work

**Q.** For Cc1cc(N)c2ccccc2[n+]1CCCCCCCCCC[n+]1c(C)cc(N)c2ccccc21 [dequalinium chloride, 1,1'-(1,10-Decanediyl)bis-[4-amino-2-methylquinolinium] salt], which minimal effective concentration ([1]; Plasmodium falciparum, ATCC50005, read-out: concentration level at and above which parasite growth was strongly inhibited and no viable parasites remained, after 72 hours) is on record?
**A.** Its minimal effective concentration is no less than 0.001 µg/mL.

**Q.** And the parasite growth ([1]; 1.0 nanogram/ml and above)?
**A.** The parasite growth was “strongly inhibited”.

**Q.** And the viable parasites remaining ([1]; 1.0 nanogram/ml and above, after 72 hours)?
**A.** Its viable parasites remaining is “no viable parasites remained”.

**Q.** What about the tumor growth inhibition (Rat Colon Tumor; 1.0 mg/kg) of the same compound?
**A.** Its tumor growth inhibition is “significant tumor growth inhibition”.

**Q.** And the survival (Rat Colon Tumor; sublethal dose 1.0 mg/kg)?
**A.** The survival was “all survived”.

**Q.** And the LD50 [2]?
**A.** The LD50 was 70 mg/kg.
